Results taken from US7442501B2, “SQV nucleic acids and polypeptides” (Massachusetts Institute of Technology, priority 2002, dated 2008).

Test system: MBP-SQV-1
Experiment: UDP-glucuronic acid decarboxylase assay (HPLC-MS)
Type: biochemical, C. elegans
Conditions: in the presence of NAD+ cofactor
Protocol: This enzymatic reaction mixture was analyzed using an HPLC coupled to a mass spectrometer. Ion phase reverse polarity HPLC separated the nucleotide sugars and […] into three peaks of elution as detected by UV (FIG. 3A). These peaks were determined by mass spectrometry to be the substrate UDP-glucuronic acid, the product UDP-xylose, and the cofactor NAD^+. Negative polarity mass spectra identified the masses of the most abundant compounds in the reaction sample as 579 and 535 (FIG. 3B). These masses corresponded to the molecular masses of UDP-glucuronic acid (580) and UDP-xylose (536). The slight difference in molecular mass (579 versus 580 and 535 versus 536) was due to the negative ionization by the mass spectrometer, which removed one hydrogen atom from each compound. The presence of isotopic masses of 536 and 537 corresponded to subpopulations of UDP-xylose containing heavy isotopes such as ^13C.
Standard molecular biology techniques were used (Sambrook et al., Molecular Cloning: A Laboratory Manual. Plainview, N.Y., Cold Spring Harbor Laboratory Pess, 1989) to obtain a construct that encoded a SQV-1-maltose-binding protein (MBP) fusion protein. The sqv-1 coding sequence was cloned into the MBP encoding vector, pMAL-c2. The oligonucleotides 5′-[…]-3′ (SEQ ID NO:32) and 5′-[…]-3′ (SEQ ID NO:33) were used to PCR-amplify the sqv-1 ORF. […]

## O=C(O)[C@H]1O[C@H](OP(=O)(O)OP(=O)(O)OC[C@H]2O[C@@H](n3ccc(=O)[nH]c3=O)[C@H](O)[C@@H]2O)[C@H](O)[C@@H](O)[C@@H]1O [UDP-glucuronic acid]
  conversion by MBP-SQV-1 fusion protein: generated UDP-xylose from UDP-glucuronic acid
